Experimental data published in patent EP2102204B1, “NEW AMINOPYRROLO[1,2- A]INDOLE ET AMINOPYRIDAZINO[1,6-A]INDOLE DERIVATIVES, METHOD FOR PREPARING THE SAME AND PHARMACEUTICAL COMPOSITIONS CONTAINING THE SAME” (Les Laboratoires Servier, priority 2007, dated 2008).
Read-outs that look alike come from different tables or passages of the source.

Experiments:
[1] = system: protéine tyrosine hydroxylase (TH); assay: Induction of tyrosine hydroxylase in the locus coeruleus of mice (immunodetection and image analysis of brain sections); assay type: in vivo, souris Balb/C; details: i.p. 20 mg/kg, single injection, 3 days after, % par rapport à la valeur moyenne du groupe témoin; for quantité de TH au niveau du LC, coupe 1: coupe 1 du LC (sens antérieur vers postérieur); for quantité de TH au niveau du LC, coupe 2: coupe 2 du LC (sens antérieur vers postérieur); for quantité de TH au niveau du LC, coupe 3: coupe 3 du LC (sens antérieur vers postérieur); for quantité de TH au niveau du LC, coupe 4: coupe 4 du LC (sens antérieur vers postérieur); for quantité de TH au niveau du LC, coupe 5: coupe 5 du LC (sens antérieur vers postérieur); for quantité de TH au niveau du LC, coupe 6: coupe 6 du LC (sens antérieur vers postérieur); for quantité de TH au niveau du LC, coupe 7: coupe 7 du LC (sens antérieur vers postérieur); for quantité de TH au niveau du LC, coupe 8: coupe 8 du LC (sens antérieur vers postérieur)
From the text: Il est recherché, parmi les dérivés, ceux qui sont capables d'induire une augmentation de la protéine tyrosine hydroxylase (TH) dans le cerveau de la souris Balb/C, au niveau du locus coeruleus (LC).
Les animaux utilisés sont des souris mâles de la lignée pure Balb/C (Charles River Laboratories), âgées de 7 à 8 semaines au moment du traitement.
Les souris reçoivent une injection unique par voie intrapéritonéale du composé à tester, dissous dans une solution d'HCl 0,04 M (contrôle correspondant : HCl […]) si le composé est suffisamment soluble, ou dans l'huile d'olive 90 % / DMSO 10 % (contrôle correspondant : huile d'olive 90 % / DMSO 10 %) pour les composés insolubles en milieu aqueux.
Trois jours après l'injection de chaque molécule, tous les animaux sont sacrifiés par décapitation. Les cerveaux extraits sont ensuite congelés dans de l'azote liquide et conservés à -80° C.
Des coupes coronales de 8 microns d'épaisseur sont pratiquées le long de l'axe postéro-antérieur du LC et fixées. Les coupes sont transférées sur membranes Immobilon-P. La TH est mesurée par immunodétection et analyse d'image.

[2] = Prediction of metabolic stability on liver microsomes; assay type: in vitro ADME; details: 10^-7 M, 0,33 mg prot/ml, NADPH, 0-60 minutes
Experimental: La prédiction de stabilité métabolique est testée par incubation des dérivés à la concentration de 10^-7 M en présence de microsomes hépatiques de souris, rat ou d'homme (0,33 mg prot/ml). Après addition de NADPH (nicotinamide adénine dinucléotide phosphate, forme réduite), des prélèvements sont réalisés à 0, 5, 15, 30 et 60 minutes. La réaction enzymatique est arrêtée avec le méthanol (VN). La protéine est précipitée par centrifugation et le surnageant analysé par LC-MS-MS. La bonne stabilité métabolique de ces dérivés permet d'envisager un traitement per os. TABLEAU III

récepteurs sigma (σ) = assay: Receptor affinity, displacement of labelled specific ligand (haloperidol); assay type: binding
From the text: (§1) L'affinité pour les récepteurs est déterminée selon les méthodes habituelles de relation entre le ligand spécifique et le récepteur, qui peut être d'origine animale ou un recombinant humain. Elle a été déterminée par la méthode du déplacement du ligand spécifique marqué par le composé étudié, et exprimée par la constante de dissociation Ki. L'affinité réceptorielle pour 28 récepteurs classiques a ainsi été étudiée. L'étude montre que l'induction de TH observée ne passe pas par une affinité vis-à-vis des récepteurs habituellement touchés par les produits psychotropes, comme les récepteurs adrénergiques alpha (de type α2), 5HT (de type 5HT2A), dopaminergiques (de type D1 et D2). Quelques dérivés montrent une affinité non négligeable pour les récepteurs sigma (σ) (ligand halopéridol) ou muscarinique (M). TABLEAU II

[3] = system: récepteurs adrénergiques alpha (de type α2); assay: Receptor affinity, displacement of labelled specific ligand; assay type: binding; details: concentration 10^-5 M
From the text: as §1

5HT2A = 5HT2A (Homo sapiens, UniProt P28223); assay: as above; assay type: binding
Sequence of 5HT2A (P28223 whole entry, species assumed): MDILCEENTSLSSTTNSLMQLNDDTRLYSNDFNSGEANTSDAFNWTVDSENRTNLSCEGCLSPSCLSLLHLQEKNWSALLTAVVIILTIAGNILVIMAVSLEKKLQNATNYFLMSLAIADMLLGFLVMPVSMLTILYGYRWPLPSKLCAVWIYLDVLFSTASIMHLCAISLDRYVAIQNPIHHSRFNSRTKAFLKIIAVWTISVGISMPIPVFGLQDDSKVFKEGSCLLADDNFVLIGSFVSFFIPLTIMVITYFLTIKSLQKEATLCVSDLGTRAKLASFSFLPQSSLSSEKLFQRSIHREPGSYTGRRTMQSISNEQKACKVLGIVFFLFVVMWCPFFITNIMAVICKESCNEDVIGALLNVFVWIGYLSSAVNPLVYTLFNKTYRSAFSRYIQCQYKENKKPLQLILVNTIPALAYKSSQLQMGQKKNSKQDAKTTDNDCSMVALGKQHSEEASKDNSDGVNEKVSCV
From the text: as §1

D1 = D1 (Homo sapiens, UniProt P21728); assay: as above; assay type: binding; details: concentration 10^-5 M; read-out: % d'inhibition D1
Sequence of D1 (P21728 whole entry): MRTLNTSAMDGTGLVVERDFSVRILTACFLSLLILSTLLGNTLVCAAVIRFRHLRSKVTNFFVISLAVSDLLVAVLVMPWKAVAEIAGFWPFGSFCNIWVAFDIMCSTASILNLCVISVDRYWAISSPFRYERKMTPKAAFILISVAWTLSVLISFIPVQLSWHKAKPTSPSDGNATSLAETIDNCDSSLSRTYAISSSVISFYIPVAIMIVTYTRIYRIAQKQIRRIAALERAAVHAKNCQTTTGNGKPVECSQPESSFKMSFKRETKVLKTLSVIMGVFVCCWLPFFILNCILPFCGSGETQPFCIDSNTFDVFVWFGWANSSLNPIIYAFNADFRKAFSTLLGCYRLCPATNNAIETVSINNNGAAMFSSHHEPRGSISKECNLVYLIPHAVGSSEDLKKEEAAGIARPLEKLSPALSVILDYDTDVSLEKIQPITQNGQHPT
From the text: as §1

SMILES	quantité de TH au niveau du LC, coupe 1 [1]	quantité de TH au niveau du LC, coupe 2 [1]	quantité de TH au niveau du LC, coupe 3 [1]	quantité de TH au niveau du LC, coupe 4 [1]	quantité de TH au niveau du LC, coupe 5 [1]	quantité de TH au niveau du LC, coupe 6 [1]	quantité de TH au niveau du LC, coupe 7 [1]	quantité de TH au niveau du LC, coupe 8 [1]	% de prédiction de stabilité métabolique sur microsomes hépatiques ([2]; Homme)	% de prédiction de stabilité métabolique sur microsomes hépatiques ([2]; Rat)	% de prédiction de stabilité métabolique sur microsomes hépatiques ([2]; Souris)	also measured
O=C1NN2c3ccccc3C[C@H]2[C@@H]2NCCC[C@H]12 (racemic) [Exemple 8, (4aSR,11aSR, 11bRS)-1,2,3,4,4a,11,11a,11b-Octahydro-1,6,6a-triazabenzo[a]fluorén-5-one]	59%	61%	59%	50%	33%	17%	9%	5%	80%	52%	86%	–
C=CCN1CCC[C@@H]2C(=O)N3c4ccc(OC)cc4C[C@@H]3[C@H]21 (racemic) [Exemple 19, (4aSR,11aRS,11bSR)-1-Allyl-9-méthoxy-1,2,3,4,4a,11,11a,11b-octahydro-pyrido[2',3':3,4]pyrrolo[1,2-a]indol-5-one]	49%	48%	55%	50%	21%	15%	6%	9%	–	–	–	% d'inhibition σ (récepteurs sigma (σ); concentration 10^-5 M): 36%; % d'inhibition σ (récepteurs sigma (σ); concentration 10^-7 M): 10%
CN1CCC[C@@H]2C(=O)N3c4ccc(Cl)cc4C[C@H]3[C@@H]21 (racemic) [Exemple 27, (4aSR,11aSR,11bRS)-9-Chloro-1-méthyl-1,2,3,4,4a,11,11a,11b-octahydropyrido[2',3':3,4]pyrrolo[1,2-a]indol-5-one]	55%	67%	54%	46%	26%	29%	3%	5%	–	–	–	% d'inhibition α2 [3]: 10%; inhibition at 10 µM (5HT2A; read-out: % d'inhibition 5HT2A, concentration 10^-5 M): 84%; % d'inhibition σ (récepteurs sigma (σ); concentration 10^-5 M): 10%
O=C1[C@H]2CCCN[C@@H]2[C@H]2Cc3ccccc3N12 (racemic) [Exemple 47, (4aSR,11aRS,11bSR)-1,2,3,4,4a,11,11a,11b-Octahydropyrido [2',3':3,4]pyrrolo[1,2-a]indol-5-one]	–	–	–	–	–	–	–	–	86%	85%	99%	–
CN1CCC[C@@H]2C(=O)N3c4ccccc4C[C@H]3[C@@H]21 [Exemple 3, (4aSR, 11aSR, 11bRS)-1-Méthyl 1,2,3,4,4a,11,11a,11b-octahydropyrido[2'3':3,4]pyrrolo[1,2-a]indol-5-one]	104%	97%	69%	58%	49%	31%	10%	8%	59%	31%	61%	inhibition at 10 µM (5HT2A; concentration 10^-5 M, read-out: % d'inhibition 5HT2A): 84%; inhibition at 10 µM (D1): 39%
C=CCN1CCC[C@@H]2C(=O)N3c4ccccc4C[C@@H]3[C@H]21 [Exemple 43, (4aS,11aR,11bS)-1-Allyl-1,2,3,4,4a,11,11a,11b-octahydropyrido[2',3':3,4]pyrrolo[1,2-a]indol-5-one]	–	–	–	–	–	–	9%	–	–	–	–	quantité de TH au niveau du LC, coupe 1 ([1]; listed as Ex.43, 20 mg/kg): 69%; quantité de TH au niveau du LC, coupe 2 ([1]; listed as Ex.43, 20 mg/kg): 88%; quantité de TH au niveau du LC, coupe 3 ([1]; listed as Ex.43, 20 mg/kg): 87%; quantité de TH au niveau du LC, coupe 4 ([1]; listed as Ex.43, 20 mg/kg): 60%; quantité de TH au niveau du LC, coupe 5 ([1]; listed as Ex.43, 20 mg/kg): 36%; quantité de TH au niveau du LC, coupe 6 ([1]; listed as Ex.43, 20 mg/kg): 34%; quantité de TH au niveau du LC, coupe 8 ([1]; listed as Ex.43, 20 mg/kg): 4%
C=CCN1CCC[C@H]2C(=O)N3c4ccccc4C[C@H]3[C@@H]21 [Exemple 44, (4aR,11aS,11bR)-1-allyl-1,2,3,4a,11,11a,11b-octahydropyrido[2':3':3.4]pyrrolo[1,2-a]indol-5-one]	83%	99%	78%	58%	38%	29%	18%	3%	–	–	–	–
CN1CCC[C@H]2C(=O)N3c4ccccc4C[C@@H]3[C@H]21 [Exemple 52, (4aR,11aR,11bS)-1-méthyl-1,2,3,4,4a,11,11a,11b-octahydropyrido[2'3':3,4]pyrrolo[1,2-a]indol-5-one]	69%	86%	79%	77%	40%	22%	12%	1%	–	–	–	–
